Drawing on patent US7335659B2, “Substituted 10-aryl-11H-benzo[b]fluorenes and 7-aryl-5, 6-dihydro-benzo[a]anthracenes for selective effects on estrogen receptors” (N.V. Organon, priority 2002, dated 2008), this text covers ERβ antagonism for 21 molecules.

The test addresses T1, human estrogen receptor β receptor (hERβ) (Homo sapiens, UniProt Q92731).
T1 construct: expressed in transfected cells; host or cells: Chinese hamster ovary (CHO) cells, stably co-transfected with hERβ, rat oxytocin promoter and luciferase reporter gene
Nature of the test: Antiestrogenic activity in in vitro bioassay with recombinant CHO cells co-transfected with hERβ, rat oxytocin promoter and luciferase reporter gene. The test is classed as cell-based. The settings on record: potency ratio relative to standard ICI 164.384; inhibition of estradiol-induced luciferase transactivation via hERβ in CHO cells. Here is the method: The estrogenic and antiestrogenic activity of compounds is determined in an in vitro bioassay with recombinant Chinese hamster ovary (CHO) cells stably co-transfected with the human estrogen receptor α (hERα) or β receptor (hERβ), the rat oxytocin promoter (RO) and the luciferase reporter gene (LUC). The estrogenic activity (potency ratio) of a test compound to stimulate the transactivation of the enzyme luciferase mediated via the estrogen receptors hERα or hERβ is compared with the standard estrogen estradiol. The antiestrogenic activity (potency ratio) of a test compound to inhibit the transactivation of the enzyme luciferase mediated via the estrogen receptors hERα or hERβ by the estrogen estradiol is compared with the standard ICI 164.384 (=(7α, 17β)-N-butyl-3,17-dihydroxy-N-methylestra-1,3,5(10)-triene-7-undecanamide).
On the technique in general: A reporter such as luciferase makes a cellular process visible.

T1 sequence (Q92731 whole entry): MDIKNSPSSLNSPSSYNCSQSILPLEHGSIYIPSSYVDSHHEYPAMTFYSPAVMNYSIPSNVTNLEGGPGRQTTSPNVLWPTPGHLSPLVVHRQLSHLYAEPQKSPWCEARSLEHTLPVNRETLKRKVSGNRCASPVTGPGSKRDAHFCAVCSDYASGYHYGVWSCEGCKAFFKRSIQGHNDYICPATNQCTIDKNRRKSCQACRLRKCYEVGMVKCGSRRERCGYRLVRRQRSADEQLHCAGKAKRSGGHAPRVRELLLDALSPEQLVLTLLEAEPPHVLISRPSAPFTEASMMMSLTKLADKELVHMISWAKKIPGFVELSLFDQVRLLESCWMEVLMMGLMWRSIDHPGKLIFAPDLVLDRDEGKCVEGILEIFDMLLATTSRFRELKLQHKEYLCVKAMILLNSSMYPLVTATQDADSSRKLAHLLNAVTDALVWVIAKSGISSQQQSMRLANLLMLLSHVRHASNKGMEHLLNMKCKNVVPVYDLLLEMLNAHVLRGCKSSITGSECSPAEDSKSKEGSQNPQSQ

Take `Oc1ccc2c(c1)Cc1c-2cc2ccc(O)cc2c1-c1ccc(Cl)cc1` [Compound 5a]: the ERβ antagonism result is “+ (>5% (relative to ICI): +)”.

On to `Oc1ccc2c(c1)Cc1c-2cc2ccc(O)cc2c1-c1ccc2ccccc2c1` [Compound 5b], for which the ERβ antagonism entry is listed as “+ (>5% (relative to ICI): +)”. Under `COc1cccc(-c2c3c(cc4ccc(O)cc24)-c2ccc(O)cc2C3)c1` [Compound 5c] stands “+ (>5% (relative to ICI): +)”. In the case of `Oc1ccc2c(c1)Cc1c-2cc2ccc(O)cc2c1-c1cccc(C(F)(F)F)c1` [Compound 5d], the ERβ antagonism entry is reported as “+ (>5% (relative to ICI): +)”. With `Cc1ccc(-c2c3c(cc4ccc(O)cc24)-c2ccc(O)cc2C3)cc1` [Compound 5e], the ERβ antagonism result is on record as “++ (>40%: ++)”. `Oc1ccc2c(c1)Cc1c-2cc2ccc(O)cc2c1-c1ccc(F)c(Cl)c1` [Compound 5f]: the ERβ antagonism entry is listed as “+ (>5% (relative to ICI): +)”. Under `Oc1ccc2c(c1)Cc1c-2cc2ccc(O)cc2c1-c1ccc2c(c1)OCO2` [Compound 5g] stands “+ (>5% (relative to ICI): +)”. For `Oc1ccc2c(c1)Cc1c-2cc2ccc(O)cc2c1-c1ccc(-c2ccccc2)cc1` [Compound 5h], the ERβ antagonism result is “+ (>5% (relative to ICI): +)”. Take `Oc1ccc2c(c1)Cc1c-2cc2ccc(O)cc2c1-c1cccc(F)c1` [Compound 5j]: the ERβ antagonism entry is “+ (>5% (relative to ICI): +)”. On to `COc1ccc(-c2c3c(cc4ccc(O)cc24)-c2ccc(O)cc2C3)cc1` [Compound 5k], for which the ERβ antagonism entry is recorded as “+ (>5% (relative to ICI): +)”. On to `Oc1ccc2c(c1)Cc1c-2cc2ccc(O)cc2c1-c1ccc(F)cc1` [Compound 5l], for which the ERβ antagonism entry was “++ (>40%: ++)”. On to `Oc1ccc2c(c1)Cc1c-2cc2ccc(O)cc2c1-c1ccc(Cl)c(Cl)c1` [Compound 5m], for which the ERβ antagonism entry was “++ (>40%: ++)”. For `Oc1ccc2c(c1)Cc1c-2cc2ccc(O)cc2c1-c1cccc(Cl)c1` [Compound 5n], the ERβ antagonism result was “+ (>5% (relative to ICI): +)”. As for `Oc1ccc2c(c1)Cc1c-2cc2ccc(O)cc2c1-c1ccc(C(F)(F)F)cc1` [Compound 5o], the ERβ antagonism result is reported as “+ (>5% (relative to ICI): +)”.

With `Cc1cccc(-c2c3c(cc4ccc(O)cc24)-c2ccc(O)cc2C3)c1` [Compound 5p], the ERβ antagonism entry is reported as “+ (>5% (relative to ICI): +)”. As for `CC(C)c1cccc(-c2c3c(cc4ccc(O)cc24)-c2ccc(O)cc2C3)c1` [Compound 5q], the ERβ antagonism result is recorded as “+ (>5% (relative to ICI): +)”. Consider `Oc1ccc2c(c1)Cc1c-2cc2ccc(O)cc2c1-c1ccc(OC(F)(F)F)cc1` [Compound 5r], for which the ERβ antagonism entry is reported as “++ (>40%: ++)”. In the case of `Oc1ccc2c(c1)Cc1c-2cc2ccc(O)cc2c1-c1ccc(-c2ccccc2)c(F)c1` [Compound 5s], the ERβ antagonism result is “+ (>5% (relative to ICI): +)”. With `Oc1ccc2c(c1)Cc1c-2cc2ccc(O)cc2c1-c1ccccc1C(F)(F)F` [Compound 5u], the ERβ antagonism entry was “++ (>40%: ++)”. Regarding `Oc1ccc2c(c1)Cc1c-2cc2ccc(O)cc2c1-c1ccccc1` [Compound 5v], the ERβ antagonism result is “+ (>5% (relative to ICI): +)”. Regarding `Oc1ccc2c(c1)Cc1c-2cc2ccc(O)cc2c1-c1ccc(OCCN2CCCCC2)cc1` [Compound 9], the ERβ antagonism entry is recorded as “++ (>40%: ++)”.
